Test results reported in the supplement of paper PMC10307832.

Assays:
Assay in all cases: relative viability (nuclei count vs DMSO), 5 days (fraction); higher = more cells survive
BAY61-3606 + Foretinib = compound: COC1=C(C=C(C=C1)C2=CC3=NC=CN3C(=N2)NC4=C(C=CC=N4)C(=O)N)OC [BAY61-3606] + COc1cc2c(Oc3ccc(NC(=O)C4(C(=O)Nc5ccc(F)cc5)CC4)cc3F)ccnc2cc1OCCCN1CCOCC1 [Foretinib] (partner 0.25 µM)
How it was run: (§1)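 Lung cancer cell lines in 1536-well plates were dosed by pin tool the day after seeding, either with one drug alone or with a fixed anchor-drug dose plus five library-drug doses (not always all listed) in √10 steps. After 5 days, cells were fixed and their nuclei stained in one step (final 0.05% Triton X-100, 1% formaldehyde, 1 ug/ml Hoechst), then counted on 4× images. Relative viability is the nuclei count in treated wells divided by that in vehicle wells. Values are medians of duplicate plates.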

BAY61-3606 + Vorinostat = compound: COC1=C(C=C(C=C1)C2=CC3=NC=CN3C(=N2)NC4=C(C=CC=N4)C(=O)N)OC [BAY61-3606] + O=C(CCCCCCC(=O)Nc1ccccc1)NO [Vorinostat] (partner 1 µM)
How it was run: as §1

Doxorubicin + Trametinib = compound: COc1cccc2c1C(=O)c1c(O)c3c(c(O)c1C2=O)C[C@@](O)(C(=O)CO)C[C@@H]3O[C@H]1C[C@H](N)[C@H](O)[C@H](C)O1 [Doxorubicin] + CC(=O)Nc1cccc(-n2c(=O)n(C3CC3)c(=O)c3c(Nc4ccc(I)cc4F)n(C)c(=O)c(C)c32)c1 [Trametinib] (partner 0.02 µM)
How it was run: as §1

Doxorubicin + Navitoclax = compound: COc1cccc2c1C(=O)c1c(O)c3c(c(O)c1C2=O)C[C@@](O)(C(=O)CO)C[C@@H]3O[C@H]1C[C@H](N)[C@H](O)[C@H](C)O1 [Doxorubicin] + CC1(C)CCC(c2ccc(Cl)cc2)=C(CN2CCN(c3ccc(C(=O)NS(=O)(=O)c4ccc(N[C@H](CCN5CCOCC5)CSc5ccccc5)c(S(=O)(=O)C(F)(F)F)c4)cc3)CC2)C1 [Navitoclax] (partner 0.5 µM)
How it was run: as §1

Row | Cell Line | relative viability (BAY61-3606 + Foretinib; first compound 0.02 µM) | relative viability (BAY61-3606 + Foretinib; first compound 0.06325 µM) | relative viability (BAY61-3606 + Foretinib; first compound 0.2 µM) | relative viability (BAY61-3606 + Foretinib; first compound 0.6325 µM) | relative viability (BAY61-3606 + Foretinib; first compound 2 µM) | relative viability (BAY61-3606 + Vorinostat; first compound 0.02 µM) | relative viability (BAY61-3606 + Vorinostat; first compound 0.06325 µM) | relative viability (BAY61-3606 + Vorinostat; first compound 0.2 µM) | relative viability (BAY61-3606 + Vorinostat; first compound 0.6325 µM) | relative viability (BAY61-3606 + Vorinostat; first compound 2 µM) | relative viability (Doxorubicin + Trametinib; first compound 0.001 µM) | relative viability (Doxorubicin + Trametinib; first compound 0.003162 µM) | relative viability (Doxorubicin + Trametinib; first compound 0.01 µM) | relative viability (Doxorubicin + Trametinib; first compound 0.03162 µM) | relative viability (Doxorubicin + Trametinib; first compound 0.1 µM) | relative viability (Doxorubicin + Navitoclax; first compound 0.001 µM) | relative viability (Doxorubicin + Navitoclax; first compound 0.003162 µM) | relative viability (Doxorubicin + Navitoclax; first compound 0.01 µM) | relative viability (Doxorubicin + Navitoclax; first compound 0.03162 µM) | relative viability (Doxorubicin + Navitoclax; first compound 0.1 µM)
1 | 201T | 1.19 | 1.05 | 1.13 | 1.17 | 1.11 | 1.02 | 0.962 | 1.05 | 1.09 | 1.06 | 0.699 | 0.727 | 0.709 | 0.71 | 0.736 | 1.16 | 1.19 | 1.2 | 1.24 | 1.21
2 | A549 | 1.11 | 0.989 | 0.853 | 0.969 | 0.809 | – | – | – | – | – | – | – | – | – | – | 1.15 | 0.977 | 0.468 | 0.0557 | 0.0324
3 | A-427 | 1.16 | 1.01 | 1.04 | 1.24 | 0.925 | 0.991 | 0.869 | 0.876 | 0.875 | 0.888 | 0.782 | 0.708 | 0.743 | 0.534 | 0.418 | 1 | 0.978 | 0.966 | 0.983 | 1.05
4 | ABC-1 | 1.19 | 0.973 | 0.971 | 1.11 | 0.907 | 1.41 | 1.08 | 1.3 | 1.3 | 1.28 | – | – | – | – | – | – | – | – | – | –
5 | BEN | 0.701 | 0.69 | 0.723 | 0.654 | 0.911 | 0.545 | 0.577 | 0.573 | 0.546 | 0.588 | 1.02 | 0.854 | 0.897 | 0.723 | 0.968 | 0.0762 | 0.071 | 0.0683 | 0.0474 | 0.0661
6 | CAL-12T | 1.12 | 1.19 | 1 | 1.19 | 0.656 | 0.827 | 0.859 | 0.725 | 0.81 | 0.576 | 0.381 | 0.352 | 0.33 | 0.225 | 0.125 | 1.09 | 1.16 | 1.24 | 0.423 | 0.182
7 | COR-L23 | 0.999 | 0.944 | 0.963 | 0.992 | 0.865 | 0.564 | 0.5 | 0.511 | 0.491 | 0.323 | 0.54 | 0.526 | 0.545 | 0.254 | 0.149 | 1.03 | 1.12 | 0.82 | 0.63 | 0.169
8 | COR-L 105 | 1.32 | 1.36 | 0.884 | 1.05 | 0.605 | 0.938 | 0.947 | 0.734 | 0.791 | 0.746 | 0.452 | 0.483 | 0.423 | 0.423 | 0.377 | 0.965 | 0.721 | 0.724 | 0.48 | 0.377
9 | Calu-6 | 0.894 | 0.905 | 0.793 | 0.773 | 0.617 | – | – | – | – | – | – | – | – | – | – | 0.835 | 0.91 | 0.581 | 0.24 | 0.113
10 | ChaGo-K-1 | 0.868 | 0.834 | 0.93 | 0.948 | 0.788 | 0.72 | 0.767 | 0.715 | 0.714 | 0.793 | 0.984 | 0.858 | 0.661 | 0.926 | 0.86 | 1.16 | 0.807 | 0.888 | 0.515 | 0.316
11 | EBC-1 | 0.105 | 0.0977 | 0.0899 | 0.0956 | 0.102 | – | – | – | – | – | – | – | – | – | – | 0.488 | 0.524 | 0.377 | 0.171 | 0.123
12 | EKVX | 0.986 | 0.673 | 0.768 | 0.978 | 0.695 | 0.84 | 0.685 | 0.658 | 0.783 | 0.775 | 0.384 | 0.317 | 0.368 | 0.39 | 0.361 | 0.929 | 1.09 | 1 | 0.853 | 0.61
13 | EMC-BAC-2 | 1.1 | 0.992 | 1.02 | 1.11 | 0.738 | 0.499 | 0.385 | 0.6 | 0.42 | 0.425 | 0.807 | 0.633 | 0.576 | 0.297 | 0.36 | 1.16 | 1.25 | 1.16 | 1.19 | 1.15
14 | EPLC-272H | 0.705 | 0.6 | 0.789 | 0.694 | 0.397 | 0.402 | 0.401 | 0.579 | 0.339 | 0.37 | 0.278 | 0.288 | 0.28 | 0.289 | 0.295 | 1.11 | 1.37 | 0.971 | 1.11 | 1.05
15 | H3255 | 0.969 | 1 | 0.841 | 0.995 | 0.829 | 0.817 | 0.8 | 0.749 | 0.75 | 0.86 | – | 0.62 | 0.633 | 0.518 | 0.591 | 0.603 | 0.617 | 0.53 | 0.457 | 0.289
16 | HARA | 0.926 | 0.76 | 0.832 | 0.887 | 0.631 | 0.547 | 0.47 | 0.415 | 0.462 | 0.466 | 0.544 | 0.575 | 0.799 | 0.471 | 0.647 | 1.17 | 1.09 | 1.18 | 1.05 | 1.15
17 | HCC-15 | 0.99 | 0.981 | 0.963 | 1.05 | 0.83 | 0.976 | 0.915 | 0.866 | 0.945 | 0.803 | 0.381 | 0.395 | 0.393 | 0.379 | 0.407 | 0.707 | 0.716 | 0.705 | 0.665 | 0.634
